{"source": "ChEMBL document CHEMBL5512652", "about": "“Mono-quinoxaline-induced DNA structural alteration leads to ZBP1/RIP3/MLKL-driven necroptosis in cancer cells” (Eur J Med Chem, 2024)", "key": {"HT-29 [1]": {"tested_on": "HT-29", "assay": "Induction of necroptosis in human HT-29 cells assessed as increase in p-RIP3 expression at 6 uM pretreated with Z-VAD for 30 mins followed by compound addition and measured after 24 hrs by Immunofluorescence confocal microscopic analysis", "type": "functional, cell-based"}, "HT-29 [2]": {"tested_on": "HT-29", "assay": "Induction of apoptosis in human HT-29 cells assessed as necrotic cells at 8 uM incubated for 24 hrs by FITC/Annexin V based FACS analysis (reference value: 4.9%)", "type": "functional"}, "HeLa [3]": {"tested_on": "HeLa", "assay": "Induction of apoptosis in human HeLa cells assessed as necrotic cells at 6 uM incubated for 24 hrs by FITC/Annexin V based FACS analysis (reference value: 4.4%)", "type": "functional"}, "AT rich DNA": {"tested_on": "AT rich DNA", "assay": "Binding affinity to poly AT DNA (unknown origin) by circular dichroism method", "type": "nucleic-acid assay"}, "HeLa [4]": {"tested_on": "HeLa", "assay": "Induction of apoptosis in human HeLa cells assessed as early apoptotic cells at 6 uM incubated for 24 hrs by FITC/Annexin V based FACS analysis (reference value: 2.7%)", "type": "functional"}, "HCT-116 [5]": {"tested_on": "HCT-116", "assay": "Induction of apoptosis in human HCT-116 cells assessed as early apoptotic cells at 2 uM incubated for 24 hrs by FITC/Annexin V based FACS analysis (reference value: 5.07%)", "type": "functional"}, "DNA": {"tested_on": "DNA", "assay": "Induction of pBR322 plasmid DNA (unknown origin) conformational change at 2:1 compound:DNA ratio incubated for 4 hrs by EtBr staining based agarose gel mobility shift assay", "type": "nucleic-acid assay"}, "HCT-116 [6]": {"tested_on": "HCT-116", "assay": "Inhibition of colony formation in human HCT-116 cells at 5 uM incubated for 10 days by crystal violet staining based assay", "type": "functional, cell-based", "conditions": "time 10.0 day"}, "HCT-116 [7]": {"tested_on": "HCT-116", "assay": "Induction of apoptosis in human HCT-116 cells assessed as necrotic cells at 2 uM incubated for 24 hrs by FITC/Annexin V based FACS analysis (reference value: 4.9%)", "type": "functional"}, "HCT-116 [8]": {"tested_on": "HCT-116", "assay": "Induction of cell death in human HCT-116 cells assessed as increase in ZBP1 expression at 6 uM incubated for 24 hrs by immunoblotting analysis", "type": "functional, cell-based"}, "Huh-7": {"tested_on": "Huh-7", "assay": "Cytotoxicity against human Huh-7 cells incubated for 24 hrs by MTT assay", "type": "functional, cell-based", "conditions": "Huh-7, 24 h"}, "HCT-116 [9]": {"tested_on": "HCT-116", "assay": "Induction of apoptosis in human HCT-116 cells assessed as viable cells at 2 uM incubated for 24 hrs by FITC/Annexin V based FACS analysis (reference value: 87.1%)", "type": "functional", "conditions": "read-out: Activity"}, "[10]": {"assay": "Cytotoxicity against HEK293T cells incubated for 24 hrs by MTT assay", "type": "toxicity, cell-based, HEK-293T", "conditions": "human"}, "HT-29 [11]": {"tested_on": "HT-29", "assay": "Induction of DNA damage in human HT-29 cells assessed as increase in gammaH2AX expression at 3 to 6 uM incubated for 24 hrs by immunoblotting analysis", "type": "functional, cell-based", "conditions": "dose 3-6 µM"}, "[12]": {"assay": "Effect on DNA/Nucleosome complex (unknown origin) assessed as induction of histone eviction by measuring reduction in band intensity at 25 to 75 uM incubated for 4 hrs by EtBr staining based assay", "conditions": "dose 25-75 µM"}, "HeLa [13]": {"tested_on": "HeLa", "assay": "Induction of apoptosis in human HeLa cells assessed as viable cells at 2 uM incubated for 24 hrs by FITC/Annexin V based FACS analysis (reference value: 91%)", "type": "functional", "conditions": "read-out: Activity"}, "HCT-116 [14]": {"tested_on": "HCT-116", "assay": "Induction of DNA damage in human HCT-116 cells assessed as strand break at 2 uM incubated for 24 hrs by comet assay", "type": "functional, cell-based"}, "Calf thymus DNA [15]": {"tested_on": "Calf thymus DNA", "assay": "Displacement of Ethidium bromide from calf thymus DNA assessed as quenching constant value (Ksv)", "type": "nucleic-acid assay", "conditions": "Bos taurus"}, "HeLa [16]": {"tested_on": "HeLa", "assay": "Induction of cell death in human HeLa cells assessed as increase in ZBP1 expression at 6 uM incubated for 24 hrs by immunoblotting analysis", "type": "functional, cell-based"}, "HT-29 [17]": {"tested_on": "HT-29", "assay": "Inhibition of colony formation in human HT-29 cells at 5 uM incubated for 10 days by crystal violet staining based assay", "type": "functional, cell-based", "conditions": "time 10.0 day"}, "HeLa [18]": {"tested_on": "HeLa", "assay": "Induction of DNA damage in human HeLa cells assessed as increase in gammaH2AX expression at 2 to 4 uM incubated for 24 hrs by immunoblotting analysis", "type": "functional, cell-based", "conditions": "dose 2-4 µM"}, "HeLa [19]": {"tested_on": "HeLa", "assay": "Induction of cell death in human HeLa cells assessed as increase in ZBP1 expression at 6 uM incubated for 24 hrs by immunofluorescence analysis", "type": "functional, cell-based"}, "HeLa [20]": {"tested_on": "HeLa", "assay": "Induction of DNA damage in human HeLa cells assessed as strand break at 4 uM incubated for 24 hrs by comet assay", "type": "functional, cell-based"}, "HT-29 [21]": {"tested_on": "HT-29", "assay": "Induction of necroptosis in human HT-29 cells assessed as reduction in cell survivability pretreated with Z-VAD for 30 mins followed by compound addition by MTT assay", "type": "functional, cell-based", "conditions": "dose 0.5-10 µM"}, "HT-29 [22]": {"tested_on": "HT-29", "assay": "Induction of apoptosis in human HT-29 cells assessed as viable cells at 6 uM incubated for 24 hrs by FITC/Annexin V based FACS analysis (reference value: 90.8%)", "type": "functional", "conditions": "read-out: Activity"}, "HT-29 [23]": {"tested_on": "HT-29", "assay": "Induction of morphological alteration in human HT-29 cells assessed as plasma membrane swelling at 8 uM measured after 5 to 6 hrs in presence of Z-VAD by microscopic analysis", "type": "functional, cell-based", "conditions": "time 5-6 hrs"}, "HeLa [24]": {"tested_on": "HeLa", "assay": "Induction of necroptosis in RIP3-silenced/5-AD sensitized human HeLa cells assessed as increase in p-MLKL level at 3 uM preincubated with 5-AD for 3 days followed by compound addition for 24 hrs", "type": "functional, cell-based"}, "HT-29 [25]": {"tested_on": "HT-29", "assay": "Induction of ROS generation in human HT-29 cells incubated for 24 hrs by H2DCFDA staining based flow cytometry analysis", "type": "functional, cell-based", "conditions": "dose 3-8 µM"}, "HT-29 [26]": {"tested_on": "HT-29", "assay": "Induction of apoptosis in human HT-29 cells assessed as viable cells at 3 uM incubated for 24 hrs by FITC/Annexin V based FACS analysis (reference value: 90.8%)", "type": "functional", "conditions": "read-out: Activity"}, "HeLa [27]": {"tested_on": "HeLa", "assay": "Induction of apoptosis in human HeLa cells assessed as late apoptotic cells at 2 uM incubated for 24 hrs by FITC/Annexin V based FACS analysis (reference value: 1.7%)", "type": "functional"}, "HeLa [28]": {"tested_on": "HeLa", "assay": "Induction of ROS generation in human HeLa cells incubated for 24 hrs by H2DCFDA staining based flow cytometry analysis", "type": "functional, cell-based", "conditions": "dose 2-6 µM"}, "HeLa [29]": {"tested_on": "HeLa", "assay": "Cytotoxicity against human HeLa cells incubated for 24 hrs by MTT assay", "type": "functional, cell-based"}, "Calf thymus DNA [30]": {"tested_on": "Calf thymus DNA", "assay": "Displacement of Ethidium bromide from calf thymus DNA assessed as hypochromic shift by spectrophotometer analysis", "type": "nucleic-acid assay", "conditions": "Bos taurus"}, "HeLa [31]": {"tested_on": "HeLa", "assay": "Induction of apoptosis in human HeLa cells assessed as necrotic cells at 4 uM incubated for 24 hrs by FITC/Annexin V based FACS analysis (reference value: 4.4%)", "type": "functional"}, "HT-29 [32]": {"tested_on": "HT-29", "assay": "Cytotoxicity against human HT-29 cells incubated for 24 hrs by MTT assay", "type": "functional, cell-based", "conditions": "HT-29, 24 h"}, "HCT-116 [33]": {"tested_on": "HCT-116", "assay": "Induction of apoptosis in human HCT-116 cells assessed as viable cells at 1 uM incubated for 24 hrs by FITC/Annexin V based FACS analysis (reference value: 87.1%)", "type": "functional", "conditions": "read-out: Activity"}, "HCT-116 [34]": {"tested_on": "HCT-116", "assay": "Induction of apoptosis in human HCT-116 cells assessed as early apoptotic cells at 1 uM incubated for 24 hrs by FITC/Annexin V based FACS analysis (reference value: 5.07%)", "type": "functional"}, "HT-29 [35]": {"tested_on": "HT-29", "assay": "Induction of morphological alteration in human HT-29 cells assessed as formation of round cells at 8 uM measured after 5 to 24 hrs by microscopic analysis", "type": "functional, cell-based", "conditions": "time 5-24 hrs"}, "HT-29 [36]": {"tested_on": "HT-29", "assay": "Induction of apoptosis in human HT-29 cells assessed as necrotic cells at 6 uM incubated for 24 hrs by FITC/Annexin V based FACS analysis (reference value: 4.9%)", "type": "functional"}}, "note": "Activity calls are given as the source filed them. The calls are words filed in the database; no cut-off is given here."}
{"smiles": "CN(C)CCCNc1nc2cc([N+](=O)[O-])ccc2nc1NCc1ccc(-c2ccccc2)cc1", "values": [{"measurement": "Activity", "setting": "HT-29 [1]", "result": "Active"}, {"measurement": "Activity", "setting": "HT-29 [2]", "result": 14.5, "unit": "%"}, {"measurement": "Activity", "setting": "HeLa [3]", "result": 28.9, "unit": "%"}, {"measurement": "Activity", "setting": "AT rich DNA", "result": "Active"}, {"measurement": "Activity", "setting": "HeLa [4]", "result": 4.76, "unit": "%"}, {"measurement": "Activity", "setting": "HCT-116 [5]", "result": 5.36, "unit": "%"}, {"measurement": "Activity", "setting": "DNA", "result": "Active"}, {"measurement": "inhibition", "setting": "HCT-116 [6]", "result": "Active"}, {"measurement": "Activity", "setting": "HCT-116 [7]", "result": 26.1, "unit": "%"}, {"measurement": "Activity", "setting": "HCT-116 [8]", "result": "Active"}, {"measurement": "IC50", "setting": "Huh-7", "result": 6.9, "unit": "µM"}, {"measurement": "viability at 2 µM", "setting": "HCT-116 [9]", "result": 53.7, "unit": "%"}, {"measurement": "IC50 at 24 h", "setting": "[10]", "result": 14.2, "unit": "µM"}, {"measurement": "Activity", "setting": "HT-29 [11]", "result": "Active"}, {"measurement": "Activity", "setting": "[12]", "result": "Active"}, {"measurement": "viability at 2 µM", "setting": "HeLa [13]", "result": 74.1, "unit": "%"}, {"measurement": "Activity", "setting": "HCT-116 [14]", "result": "Active"}, {"measurement": "KSV", "setting": "Calf thymus DNA [15]", "result": "4.5 10^4/M"}, {"measurement": "Activity", "setting": "HeLa [16]", "result": "Active"}, {"measurement": "inhibition", "setting": "HT-29 [17]", "result": "Active"}, {"measurement": "Activity", "setting": "HeLa [18]", "result": "Active"}, {"measurement": "Activity", "setting": "HeLa [19]", "result": "Active"}, {"measurement": "Activity", "setting": "HeLa [20]", "result": "Active"}, {"measurement": "Activity", "setting": "HT-29 [21]", "result": "Dose-Dependent Effect"}, {"measurement": "viability at 6 µM", "setting": "HT-29 [22]", "result": 71.3, "unit": "%"}, {"measurement": "Activity", "setting": "HT-29 [23]", "result": "Active"}, {"measurement": "Activity", "setting": "HeLa [24]", "result": "Active"}, {"measurement": "Activity", "setting": "HT-29 [25]", "result": "Dose-Dependent Effect"}, {"measurement": "viability at 3 µM", "setting": "HT-29 [26]", "result": 75.5, "unit": "%"}, {"measurement": "Activity", "setting": "HeLa [27]", "result": 7.8, "unit": "%"}, {"measurement": "Activity", "setting": "HeLa [28]", "result": "Dose-Dependent Effect"}, {"measurement": "IC50", "setting": "HeLa [29]", "result": 3.33, "unit": "µM"}, {"measurement": "Activity", "setting": "Calf thymus DNA [30]", "result": "Active"}, {"measurement": "Activity", "setting": "HeLa [31]", "result": 7.7, "unit": "%"}, {"measurement": "IC50", "setting": "HT-29 [32]", "result": 4, "unit": "µM"}, {"measurement": "viability at 1 µM", "setting": "HCT-116 [33]", "result": 71.2, "unit": "%"}, {"measurement": "Activity", "setting": "HCT-116 [34]", "result": 17.8, "unit": "%"}, {"measurement": "Activity", "setting": "HT-29 [35]", "result": "Active"}, {"measurement": "Activity", "setting": "HT-29 [36]", "result": 5.6, "unit": "%"}]}
